# According to patent US20140341939A1 (NATIONAL UNIVERSITY CORPORATION KOCHI UNIVERSITY, priority 2011, published 2014):
# “Also recorded” adds a separate entry of the source. Where no end group is shown, it is not given here.
# Legend:
# [1] = tested on: peptidase activity in the serum; experiment: Effect of peptidase inhibitor on OVII peptide digestion by mouse serum; type: biochemical; conditions: inhibitor-containing buffer (FIGS. 22-24)
# Source text: Given the above-mentioned Examples, the inventor examined the effect of peptidase inhibitor on the peptide digestion to identify the peptidase in the serum.
# DO11.10 cells [2] = experiment: Growth of CD4 T cells: proliferation of DO11.10 cells by OVII modified peptides (3H-thymidine); type: cell-based, mouse
# ACE = molecular target: T1, ACE (Mus musculus, UniProt P09470); experiment: ACE activity of antigen presenting cell (CH1-IA^d cells, Abz-FRK(Dnp)P-OH substrate); type: cell-based; conditions: 2.5 mM inhibitor, preincubated 37° C. 20 min; 10 μM Abz-FRK(Dnp)P-OH (FIG. 25)
# T1 construct: endogenous in cells; host or cells: CH1-IA^d cells (living, in PBS)
# T1 sequence (P09470 35-1312): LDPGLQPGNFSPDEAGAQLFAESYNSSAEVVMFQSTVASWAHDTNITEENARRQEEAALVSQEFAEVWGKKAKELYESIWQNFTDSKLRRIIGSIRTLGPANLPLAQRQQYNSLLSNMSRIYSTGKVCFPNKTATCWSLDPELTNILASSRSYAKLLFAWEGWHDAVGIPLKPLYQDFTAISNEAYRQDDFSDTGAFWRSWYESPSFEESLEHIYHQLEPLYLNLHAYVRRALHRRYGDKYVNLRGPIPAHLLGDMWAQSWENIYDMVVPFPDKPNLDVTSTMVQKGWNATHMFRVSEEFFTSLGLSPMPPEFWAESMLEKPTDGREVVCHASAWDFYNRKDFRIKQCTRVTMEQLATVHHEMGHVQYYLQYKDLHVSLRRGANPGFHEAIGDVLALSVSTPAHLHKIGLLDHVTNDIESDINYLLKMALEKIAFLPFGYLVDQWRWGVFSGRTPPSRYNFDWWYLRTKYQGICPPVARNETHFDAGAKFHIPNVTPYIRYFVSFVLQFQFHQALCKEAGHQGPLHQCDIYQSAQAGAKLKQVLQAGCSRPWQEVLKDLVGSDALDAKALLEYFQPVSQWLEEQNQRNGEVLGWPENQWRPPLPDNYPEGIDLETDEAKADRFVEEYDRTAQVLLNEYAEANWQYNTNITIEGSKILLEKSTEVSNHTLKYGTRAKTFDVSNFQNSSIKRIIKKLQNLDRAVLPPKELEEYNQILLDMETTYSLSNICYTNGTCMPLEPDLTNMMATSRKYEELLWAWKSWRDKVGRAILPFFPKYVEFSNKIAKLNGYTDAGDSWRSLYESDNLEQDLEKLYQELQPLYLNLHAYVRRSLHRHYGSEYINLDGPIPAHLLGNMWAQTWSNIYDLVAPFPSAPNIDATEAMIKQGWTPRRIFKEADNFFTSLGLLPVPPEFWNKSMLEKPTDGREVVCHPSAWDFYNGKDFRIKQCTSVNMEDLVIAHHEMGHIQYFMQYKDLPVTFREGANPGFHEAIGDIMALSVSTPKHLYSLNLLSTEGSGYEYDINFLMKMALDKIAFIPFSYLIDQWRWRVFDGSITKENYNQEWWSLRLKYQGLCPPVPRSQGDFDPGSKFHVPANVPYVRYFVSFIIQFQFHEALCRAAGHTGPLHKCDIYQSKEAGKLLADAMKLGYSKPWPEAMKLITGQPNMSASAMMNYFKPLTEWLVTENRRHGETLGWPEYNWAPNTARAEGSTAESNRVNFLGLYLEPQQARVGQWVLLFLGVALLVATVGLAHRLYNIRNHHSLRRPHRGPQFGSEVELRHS
# Method: The ACE activity of the cell surface was measured by a modified method of the method described in Sabatini, R. et al., Anal Biochem 363: 255-262, 2007.
# 10 μM Abz-FRK(Dnp)P-OH (Sigma, St. Louis) was added and the cells were incubated at 37° C. for a given time. The reaction was quenched by placing them on ice. After centrifugation, fluorescence in the supernatant was measured at excitation wavelength of 320 nm and emission wavelength of 420 nm (FIG. 25).
# in vitro = conditions: mouse, serum
# Method: (§1) Peptide was digested in TBS containing 10% fresh mouse serum or fresh human serum. After incubation at 37° C. for a given time, 1% trifluoro acid was added to remove various serum proteins by precipitation. After short centrifugation, the soluble fraction was analyzed by reversed-phase HPLC using a C18 analysis column. To normalize variation in the total amount of the peptide loaded for each HPLC, the peak of non-protein components contained in the serum, which is absorbed at the wavelength of 220 nm, was used as an internal control. The peak area of undigested peptides was quantitatively monitored by Chromatopac C-R8A (Shimadzu Corp., Kyoto, Japan), and the amount of the remaining peptide was calculated.
# (§2) Therefore, the inventor examined the digestion resistance of peptide in vitro in a 10% fresh mouse serum. The amount of a remaining undigested peptide was quantified by HPLC.
# serum peptidase [3] = tested on: serum peptidase
# Method: as §1, §2
# EG7 tumor = experiment: Antitumor activity by in vivo immunization with OVA-derived peptides (EL4 / EG7 tumor); conditions: CBF1 mouse, peptide-loaded LPS blast i.p. 3 times; EL4 / EG7 tumor (FIG. 8)
# Source text: CBF1 mouse was immunized with LPS blast of splenocyte pulsed with either λ repressor peptide ([…]; SEQ ID NO: 39) or OVAII peptide as a Th epitope peptide, and K^b-binding OVA-I peptide, which is a CTL inducing peptide. LPS blast derived from one spleen was pulsed with peptide, and intraperitoneally injected to immunize two mice. The next day of the third immunization, 9×10^6 EL4 cells and 1.2×10^7 EG7 cells were intradermally transplanted in a pair on the back skin of the mice. The tumor size was measured every other day. Immunization was performed once again 2 weeks from the tumor transplantation.
# To verify the anti-tumor effect of inducing tumor-specific Th cells in vivo, the inventor compared the immunization protocol that induces 1. CTL alone, 2. CTL and a third party antigen-specific Th cell, and 3. CTL and tumor-specific Th cell. As the antigen presenting cell, LPS blast of spleen cell was used, and the APC loaded with each peptide alone or the mixture of each peptide was injected intraperitoneally 3 times (once per week). On the day of third immunization, 9×10^6 EL4 and 1.2×10^7 EG7 tumor were innoculated on the opposite sides of the back, and the tumor diameter was measured from day 4.
# DO11.10 cells [4] = experiment: Antigen presentation by F2-IA^d vascular endothelial cells (CD69 expression by DO11.10 cells); type: cell-based, mouse
# Method: EL4 cells were first opsonized with RGD peptide. Next, 5 mg/ml OVA protein was loaded on the cytoplasm by osmotic pressure loading. After sufficient washing, 2×10^6 EL4 cells were added to a confluent culture medium of F2-IA^d cells on a 24-well plate (cultured for 2 days in advance in the presence of 500 U/ml rmIFN-γ). As a control, EL4 and EG7 mock-loaded with PBS were RGD-modified in the same manner and used. EL4 and other target cells were added to F2-IA^d, and the cell mixture was cultured for 24 hr. As for the control well wherein F2-IA^d cells were directly loaded with OVAII peptide, the cells were pulsed with peptide for 2 hr at the end of the culture. After removing the non-adherent cells and debris of dead cells, the surface of the adhered F2-IA^d cells was sufficiently washed. In an antigen presentation inhibitory experiment using chloroquine, 100 μM chloroquine was added 30 min before addition of EL4, EL4 loaded with OVA or 0.25 mg/ml OVA protein. Furthermore, F2-IA^d cells were cultured for 3 days in the continuous presence of chloroquine.
# Whether the F2-IA^d cells presented the target antigen polypeptide on the cell surface was evaluated by monitoring the expression of CD69 by DO11.10 cells. The antigen-presenting F2-IA^d cells and DO11.10 cells were mixed and centrifuged to contact the cells with one another. After 6 hr and 24 hr, the cells were stained with biotin-labeled anti CD69 mAb (H1.2F3, BD Biosciences), and the expression of CD69 by DO11.10 cells was detected by flow cytometry (stained positive with FITC-labeled KJ1.26 (anti clonotypic TCR mAb)).
# DO11.10 cells [5] = experiment: Cell migration test through F2-IA^d cell layer (Transwell); type: cell-based, mouse
# Method: F2-IA^d cells were cultured until confluence on an insert of Transwell plate (BD Labware, Billerica, Calif.). The cells were cultured in the presence of 500 U/ml rmIFN-γ for the last 3 days of culture. In addition, F2-IA^d cells were pulsed with various concentrations of OVAII peptide for the last 2 hr of culture. After the culture, F2-IA^d cells were washed and CD4^+ cells were isolated by negative selection (Dynal mouse CD4 negative isolation kit (Invitrogen)) from DO11.10 transgenic spleen cells to not less than 95% purity, which were added by 4×10^6 cells per well. The cells were incubated at 37° C., and the number of DO11.10 that migrated under the chamber in 6 hr was counted.
# I-A^d molecule = molecular target: T2, I-A^d molecule (Mus musculus, UniProt P01921+P04228); experiment: Peptide-binding assay on CH1-IA^d cells (FITC-streptavidin, flow cytometry); conditions: CH1-IA^d cells (FIG. 17)
# T2 construct: expressed in transfected cells; host or cells: CH1 cells, retroviral transduction with pMX (I-Aβ-IRES-I-Aα)
# T2 sequence (P04228 24-256): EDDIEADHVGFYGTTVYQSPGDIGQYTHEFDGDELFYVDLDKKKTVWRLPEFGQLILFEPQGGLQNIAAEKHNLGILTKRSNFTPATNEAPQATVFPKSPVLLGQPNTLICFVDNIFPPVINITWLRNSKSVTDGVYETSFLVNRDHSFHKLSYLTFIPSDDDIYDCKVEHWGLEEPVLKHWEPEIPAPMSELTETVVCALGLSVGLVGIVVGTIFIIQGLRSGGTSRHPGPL
# T2 sequence (P01921 28-265): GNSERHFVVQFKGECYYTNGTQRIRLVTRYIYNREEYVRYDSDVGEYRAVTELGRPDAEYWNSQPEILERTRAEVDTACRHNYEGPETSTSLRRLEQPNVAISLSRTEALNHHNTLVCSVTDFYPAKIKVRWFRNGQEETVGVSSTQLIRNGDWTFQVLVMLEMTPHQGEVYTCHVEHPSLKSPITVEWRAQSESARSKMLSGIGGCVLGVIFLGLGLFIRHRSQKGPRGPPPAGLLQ
# Method: The CH1-IA^d or CH1-IA^b cells were suspended in 2% BSA IMDM to 2×10^6 cells/ml. The cell suspension (100 μl) was added to peptide (100 μl) continuously diluted with serum-free IMDM. After incubating at 37° C. for 2 hr, 6 hr or 16 hr, the cells were washed and stained with FITC-streptavidin. The amount of peptide bound to the cells was measured by flow cytometry.
# [6] = tested on: FBL3 erythroleukemia cells; experiment: In vivo antitumor activity in FBL3 tumor mice immunized with MHC class I and class II peptide; conditions: CBF1 mouse
# Source text: In the immunization experiment using mouse, the mouse was immunized with PbW332bPβ peptide as a Th-inducing peptide, and Db126 peptide as a CTL inducing peptide. As a tumor to be inoculated to the mouse, FBL3 erythroleukemia cell that highly expresses natural WT1 tumor antigen was used. FBL3 is a cell line that was transformed by infection with Friend leukemia virus, and has high possibility of also expressing virus antigen. In fact, when 2×10^7 FBL3 cells were intradermally injected on the back of the mouse, they grew into a solid tumor. However, the tumor had the tendency to shrink naturally after reaching the maximum size. […] Over time, the tumor sometimes started to grow rapidly in a long-term observation.
# CBF1 mouse was immunized in advance by subcutaneous injection of 50 nmoles of Db126 peptide alone, or Db126 peptide and 50 nmoles of W332 peptide, to 4 sites in the top, bottom, left and right of the back. A vaccine of 5×10^7 Bordetella pertussis whole cells was added as an adjuvant to all immunization groups including control PBS inoculation group. The mouse was immunized 3 times (once per week) and then 2×10^7 FBL3 cells were subcutaneously injected to the back.
# [7] = Degradation of peptide in 10% fresh mouse serum (HPLC of remaining peptide); conditions: mouse, 10% fresh mouse serum
# Method: as §1, §2
# serum peptidase [8] = experiment: as above; conditions: 10% fresh mouse serum, up to 16 hr (FIG. 21)
# Method: as §1, §2
# [9] = low concentration of pulsed peptide (0.1 μM or less) (FIG. 5)
compound,measurement,setting,value
CC(C)C[C@H](NC(=O)[C@@H](O)[C@H](N)Cc1ccccc1)C(=O)O [bestatin],inhibition of OVII peptide digestion / peptidase activity in serum,[1],about half of the peptidase activity was suppressed
C[C@H](CS)C(=O)N1CCC[C@H]1C(=O)O [captopril],sensitization activity of OVII on addition of captopril,"DO11.10 cells [2]; 2.5 mM captopril in medium (FIGS. 14, 15)",improved the sensitization activity of OVII to a level close to that of OVIIPA peptide
same,survival of DO11.10 cells,DO11.10 cells [2]; 5 mM captopril,cannot survive
same,inhibition of OVII peptide digestion / peptidase activity in serum,[1],suppressed in a concentration-dependent manner
c1cnc2c(c1)ccc1cccnc12 [o-phenanthrolin],inhibition of peptide degrading enzyme activity associated with living cells,ACE,inhibited
same,inhibition of OVII peptide digestion / peptidase activity in serum,[1],almost completely inhibited
ISQAVHAAHAEINEA [OVII],metabolised at 2 h,in vitro,40%
same,undigested peptide left,serum peptidase [3],undigested peptide was not left
ISQAVHAAHAEINEAGR (peptide inducing Th) [OVAII],"tumor control, Th peptide together with OVA-I",EG7 tumor,enabled better control of the tumor; also recorded: completely disappeared in a part of the mice
same,expression of CD69 in DO11.10 cells,DO11.10 cells [4]; F2-IA^d cells pulsed with 0.1 μM peptide,induced expression of CD69 in DO11.10 cells to the same level as when OVA-loaded EL4 was incorporated
same,stimulation of DO11.10 cells by peptide-pulsed endothelial cells,DO11.10 cells [4]; F2-IA^d cells pulsed with peptide (FIG. 2),could stimulate DO11.10 cells
same,induction of the expression of CD69,DO11.10 cells [4]; [9],induction of the expression of CD69 was hardly confirmed
same,migration of DO11.10 cells through F2-IA^d cell layer,DO11.10 cells [5]; high concentration of pulsed peptide (FIG. 5),did not migrate by penetrating the F2-IA^d cell layer
same,migration of DO11.10 cells through F2-IA^d cell layer,DO11.10 cells [5]; [9],"actively migrated, and penetrated the F2-IA^d cell layer"
ISQAVHAAHAEINEAR [OVII+],"binding activity to I-A^d molecule, effect of added Arg",I-A^d molecule,did not affect the binding activity to I-A^d molecule
"KRYFKLSHLQMHSRKH [W332, WT1 antigen-derived polypeptide]","antitumor activity, Th-inducing peptide together with Db126 peptide","[6]; 50 nmoles each peptide s.c. with Wc adjuvant, 3 times, FBL3 tumor (FIG. 29)",stronger antitumor activity than Db126 single peptide immunization
same,"long-term remaining tumor, Th-inducing peptide together with Db126 peptide","[6]; FBL3 tumor, vs Wc alone, Db126 or W332 single immunization",tends to shrink
PSISQAVHAAHAEINEA [POVII],remaining at 16 h,[7],~70%
same,digestion resistance to serum peptidases (in words),serum peptidase [8],very strong enzyme resistance
